Measurements published in ChEMBL document CHEMBL5543167, “Design, Synthesis, and Biological Evaluation of Novel EGFR PROTACs Targeting C797S Mutation” (J Med Chem, 2024).

Key:
[1] = molecular target: Protein cereblon/Epidermal growth factor receptor (Homo sapiens, UniProt P00533+Q96SW2, T790M/C797S/L858R); assay: PROTAC activity at CRBN/EGFR L858R/T790M/C797S mutant in human H1975-TM cells assessed as induction of EGFR degradation incubated for 24 hrs by Western blot analysis; type: cell-based
[2] = test system: Protein cereblon/Epidermal growth factor receptor (Homo sapiens), P00533+Q96SW2 [L858R,T790M,C797S]; assay: PROTAC activity at CRBN/EGFR L858R/T790M/C797S mutant in human H1975-TM cells assessed as induction of EGFR degradation by measuring maximal efficacy at 300 nM incubated for 24 hrs by Western blot analysis relative to control; type: cell-based
[3] = Antiproliferative activity against human HI975-TM cells harboring EGFR L858R/T790M/C797S mutant assessed as inhibition of cell growth incubated for 72 hrs by CCK-8 assay; type: functional, cell-based; conditions: H1975-TM
[4] = molecular target: von Hippel-Lindau disease tumor suppressor/Epidermal growth factor receptor (Homo sapiens, UniProt P00533+P40337, L858R); assay: PROTAC activity at VHL/EGFR L858R mutant in human NCI-H3255 cells assessed as induction of EGFR degradation incubated for 24 hrs by immunoblotting analysis; type: cell-based
[5] = test system: Protein cereblon/Epidermal growth factor receptor (Homo sapiens), P00533+Q96SW2 [L858R,T790M,C797S]; assay: Induction of EGFR L858R/T790M/C797S mutant in human H1975-TM cells assessed as remaining activity at 1 uM incubated for 6 hrs by Western blot analysis (reference value: 100%); type: cell-based
[6] = molecular target: Protein cereblon/Epidermal growth factor receptor (Homo sapiens, UniProt P00533+Q96SW2, T790M/L858R); assay: PROTAC activity at CRBN/EGFR L858R/T790M double mutant in human NCI-H1975 cells assessed as induction of EGFR degradation; type: cell-based
[7] = test system: Protein cereblon/Epidermal growth factor receptor (Homo sapiens), P00533+Q96SW2 [L858R,T790M,C797S]; assay: PROTAC activity at CRBN/EGFR L858R/T790M/C797S mutant in human H1975-TM cells assessed as induction of EGFR degradation by measuring remaining activity at 100 nM incubated for 24 hrs by Western blot analysis (reference value: 100%); type: cell-based
[8] = Antiproliferative activity against human PC-9-TM cells harboring EGFR exon 19 deletion/T790M/[…] mutant assessed as inhibition of cell proliferation incubated for 72 hrs by CCK8 assay; type: functional, cell-based
A549 = assay: Antiproliferative activity against human A549 cells harboring wildtype EGFR assessed as inhibition of cell proliferation incubated for 72 hrs by CCK8 assay; type: functional, cell-based; conditions: A549, 72 h
NCI-H1975 = assay: Antiproliferative activity against human NCI-H1975 cells harboring EGFR L858R/T790M mutant assessed as inhibition of cell proliferation incubated for 72 hrs by CCK8 assay; type: functional, cell-based; conditions: NCI-H1975, 72 h
PC-9 = assay: Antiproliferative activity against human PC-9 cells harboring EGFR exon 19 deletion mutant assessed as inhibition of cell proliferation incubated for 72 hrs by CCK8 assay; type: functional, cell-based; conditions: PC-9, 72 h
[9] = molecular target: Epidermal growth factor receptor (Homo sapiens, UniProt P00533, C797S/L858R/T790M); assay: Binding affinity to EGFR L858R/T790M/C797S mutant (unknown origin) assessed as dissociation constant incubated for 10 mins under dark condition by MST analysis
Epidermal growth factor receptor, sequence (P00533 25-1210 T790M/C797S/L858R limits assumed): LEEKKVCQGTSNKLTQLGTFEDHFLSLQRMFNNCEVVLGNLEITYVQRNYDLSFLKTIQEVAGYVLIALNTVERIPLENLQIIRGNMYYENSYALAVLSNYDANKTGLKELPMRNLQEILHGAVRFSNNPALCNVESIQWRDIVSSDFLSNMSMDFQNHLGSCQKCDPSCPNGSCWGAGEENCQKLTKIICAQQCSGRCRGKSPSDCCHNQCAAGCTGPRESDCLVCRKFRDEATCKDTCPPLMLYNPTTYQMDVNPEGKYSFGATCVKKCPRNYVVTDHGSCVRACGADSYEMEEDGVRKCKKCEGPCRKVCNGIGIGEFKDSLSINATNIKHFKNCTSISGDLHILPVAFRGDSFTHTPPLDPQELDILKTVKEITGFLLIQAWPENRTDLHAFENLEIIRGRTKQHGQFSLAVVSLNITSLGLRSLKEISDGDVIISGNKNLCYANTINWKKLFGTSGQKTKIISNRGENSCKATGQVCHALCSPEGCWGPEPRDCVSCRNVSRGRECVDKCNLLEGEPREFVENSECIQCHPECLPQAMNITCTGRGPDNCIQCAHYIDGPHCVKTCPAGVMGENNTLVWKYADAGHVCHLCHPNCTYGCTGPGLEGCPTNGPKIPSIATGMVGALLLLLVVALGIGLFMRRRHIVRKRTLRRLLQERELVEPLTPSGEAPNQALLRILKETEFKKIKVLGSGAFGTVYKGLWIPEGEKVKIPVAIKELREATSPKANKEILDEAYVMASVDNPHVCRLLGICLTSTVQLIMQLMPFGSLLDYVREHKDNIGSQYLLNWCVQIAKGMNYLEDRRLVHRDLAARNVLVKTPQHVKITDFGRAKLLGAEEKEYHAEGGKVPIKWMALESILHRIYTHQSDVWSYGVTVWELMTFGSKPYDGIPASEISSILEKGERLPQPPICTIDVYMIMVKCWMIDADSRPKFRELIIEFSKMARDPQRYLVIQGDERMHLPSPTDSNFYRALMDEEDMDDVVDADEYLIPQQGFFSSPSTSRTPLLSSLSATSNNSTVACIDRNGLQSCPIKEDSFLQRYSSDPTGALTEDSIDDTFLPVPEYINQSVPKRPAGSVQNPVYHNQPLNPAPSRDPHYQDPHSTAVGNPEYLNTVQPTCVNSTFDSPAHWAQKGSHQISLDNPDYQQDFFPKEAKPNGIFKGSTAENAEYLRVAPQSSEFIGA

Protein cereblon/Epidermal growth factor receptor (Homo sapiens, UniProt P00533+Q96SW2, T790M/C797S/L858R), sequence (P00533 25-1210 T790M/C797S/L858R limits assumed, stated change not applied): as the sequence (P00533 25-1210 T790M/C797S/L858R limits assumed) above
Protein cereblon/Epidermal growth factor receptor (Homo sapiens, UniProt P00533+Q96SW2, T790M/C797S/L858R), sequence (Q96SW2 whole entry, stated change not applied): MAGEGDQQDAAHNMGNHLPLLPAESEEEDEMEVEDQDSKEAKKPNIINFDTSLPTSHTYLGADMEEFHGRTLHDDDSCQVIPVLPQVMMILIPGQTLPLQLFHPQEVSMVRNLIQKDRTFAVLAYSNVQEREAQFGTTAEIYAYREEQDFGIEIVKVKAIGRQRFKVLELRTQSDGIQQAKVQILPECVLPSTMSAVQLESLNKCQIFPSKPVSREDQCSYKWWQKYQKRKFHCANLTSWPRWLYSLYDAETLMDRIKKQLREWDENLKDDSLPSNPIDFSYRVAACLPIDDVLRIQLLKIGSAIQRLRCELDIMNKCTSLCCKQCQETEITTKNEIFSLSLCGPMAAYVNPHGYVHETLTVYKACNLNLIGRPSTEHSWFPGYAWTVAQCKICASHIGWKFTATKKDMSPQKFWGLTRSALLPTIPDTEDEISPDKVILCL
Protein cereblon/Epidermal growth factor receptor (Homo sapiens, UniProt P00533+Q96SW2, T790M/L858R), sequence (P00533 25-1210 T790M/L858R limits assumed, stated change not applied): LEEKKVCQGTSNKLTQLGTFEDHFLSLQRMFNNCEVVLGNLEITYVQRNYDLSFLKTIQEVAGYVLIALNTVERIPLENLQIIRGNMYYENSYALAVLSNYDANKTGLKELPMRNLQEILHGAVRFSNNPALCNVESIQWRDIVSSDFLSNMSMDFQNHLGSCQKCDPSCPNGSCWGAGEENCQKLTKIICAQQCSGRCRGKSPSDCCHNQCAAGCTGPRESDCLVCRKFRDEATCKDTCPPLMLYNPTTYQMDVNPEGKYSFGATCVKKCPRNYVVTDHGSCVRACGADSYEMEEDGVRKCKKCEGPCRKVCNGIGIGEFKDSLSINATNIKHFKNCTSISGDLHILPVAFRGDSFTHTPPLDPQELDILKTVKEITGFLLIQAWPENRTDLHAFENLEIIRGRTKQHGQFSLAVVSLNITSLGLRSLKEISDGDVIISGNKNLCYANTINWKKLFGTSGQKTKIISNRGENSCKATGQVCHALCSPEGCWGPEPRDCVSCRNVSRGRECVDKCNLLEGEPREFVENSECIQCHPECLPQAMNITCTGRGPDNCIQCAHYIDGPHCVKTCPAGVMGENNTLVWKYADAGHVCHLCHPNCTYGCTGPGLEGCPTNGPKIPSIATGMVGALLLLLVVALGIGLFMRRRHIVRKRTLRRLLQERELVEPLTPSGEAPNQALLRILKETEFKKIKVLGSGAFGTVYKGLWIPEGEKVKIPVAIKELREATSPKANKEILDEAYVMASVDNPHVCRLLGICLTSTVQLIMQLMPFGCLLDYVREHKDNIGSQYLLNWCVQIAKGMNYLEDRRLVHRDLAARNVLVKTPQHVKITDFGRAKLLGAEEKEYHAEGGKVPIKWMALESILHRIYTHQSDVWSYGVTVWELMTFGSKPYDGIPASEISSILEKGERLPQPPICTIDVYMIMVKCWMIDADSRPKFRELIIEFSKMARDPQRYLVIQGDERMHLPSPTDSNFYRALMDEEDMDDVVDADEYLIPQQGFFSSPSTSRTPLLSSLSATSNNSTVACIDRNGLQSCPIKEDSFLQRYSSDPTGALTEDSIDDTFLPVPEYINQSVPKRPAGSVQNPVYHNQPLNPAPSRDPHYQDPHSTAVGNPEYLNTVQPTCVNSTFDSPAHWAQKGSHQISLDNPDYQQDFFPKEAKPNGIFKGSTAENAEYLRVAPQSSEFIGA
Protein cereblon/Epidermal growth factor receptor (Homo sapiens, UniProt P00533+Q96SW2, T790M/L858R), sequence (Q96SW2 whole entry, stated change not applied): as the sequence (Q96SW2 whole entry, stated change not applied) above

Compound	DC50 [1] [nM]	Emax [2] [%]	IC50 [3] [nM]	other results
CCS(=O)(=O)n1cc(-c2nc(Nc3ccc(N4CCN(CCCCCC(=O)Nc5cccc6c5CN(C5CCC(=O)NC5=O)C6=O)CC4)cc3)ncc2C(F)(F)F)c2ccccc21 (stereo not drawn)	59.4	94.6	62.9	
COc1cc2ncnc(Nc3ccc(F)c(Cl)c3)c2cc1OCCCCCOCCOCCC(=O)N[C@H](C(=O)N1C[C@H](O)C[C@H]1C(=O)NCc1ccc(-c2scnc2C)cc1)C(C)(C)C				DC50 [4]: 39 nM
CCS(=O)(=O)n1cc(-c2nc(Nc3ccc(N4CCN(CCCCC(=O)Nc5cccc6c5CN(C5CCC(=O)NC5=O)C6=O)CC4)cc3)ncc2C(F)(F)F)c2ccccc21 (stereo not drawn)	82.5			
CCS(=O)(=O)n1cc(-c2nc(Nc3ccc(N4CCN(C(=O)CCCCCCC(=O)Nc5cccc6c5CN(C5CCC(=O)NC5=O)C6=O)CC4)cc3)ncc2C(F)(F)F)c2ccccc21 (stereo not drawn)	159	85.9	278	
CC(C)C[C@@H](C=O)NC(=O)[C@H](CC(C)C)NC(=O)[C@H](CC(C)C)NC(=O)OCc1ccccc1				Activity [5]: 80.3%
O=C1CCC(N2C(=O)c3cccc(NCCOCCOCCOCCN4CCN(c5ccc(-c6ccc7c(c6)C(=O)N(C(C(=O)Nc6nccs6)c6ccccc6)C7)cn5)CC4)c3C2=O)C(=O)N1 (stereo not drawn)				DC50 [6]: 5.9 nM
CCS(=O)(=O)n1cc(-c2nc(Nc3ccc(N4CCN(C(=O)CCCCCC(=O)Nc5cccc6c5CN(C5CCC(=O)NC5=O)C6=O)CC4)cc3)ncc2C(F)(F)F)c2ccccc21 (stereo not drawn)	162	80.1	197	
CCS(=O)(=O)n1cc(-c2nc(Nc3ccc(N4CCN(CCCCCCCC(=O)Nc5cccc6c5CN(C5CCC(=O)NC5=O)C6=O)CC4)cc3)ncc2C(F)(F)F)c2ccccc21 (stereo not drawn)	17	> 95	34.2	
CCS(=O)(=O)n1cc(-c2nc(Nc3ccc(N4CCN(CC(=O)Nc5cccc6c5CN(C5CCC(=O)NC5=O)C6=O)CC4)cc3)ncc2C(F)(F)F)c2ccccc21 (stereo not drawn)	30.1	89.3	88.7	
CCS(=O)(=O)n1cc(-c2nc(Nc3ccc(N4CCN(CCCCCCC(=O)Nc5cccc6c5CN(C5CCC(=O)N(C)C5=O)C6=O)CC4)cc3)ncc2C(F)(F)F)c2ccccc21 (stereo not drawn)				Activity [7]: 97.7%
C=CC(=O)Nc1cc(Nc2nccc(-c3cn(C)c4ccccc34)n2)c(OC)cc1N(C)CCN(C)C [OSIMERTINIB]			2240	
CCS(=O)(=O)n1cc(-c2nc(Nc3ccc(N4CCN(C(=O)CCCC(=O)Nc5cccc6c5CN(C5CCC(=O)NC5=O)C6=O)CC4)cc3)ncc2C(F)(F)F)c2ccccc21 (stereo not drawn)	153	80.4	198	
CCS(=O)(=O)n1cc(-c2nc(Nc3ccc(N4CCN(CCCCCCCCCCC(=O)Nc5cccc6c5CN(C5CCC(=O)NC5=O)C6=O)CC4)cc3)ncc2C(F)(F)F)c2ccccc21 (stereo not drawn)	281	77.3	161	
CCS(=O)(=O)n1cc(-c2nc(Nc3ccc(N4CCN(CCCCCCCCC(=O)Nc5cccc6c5CN(C5CCC(=O)NC5=O)C6=O)CC4)cc3)ncc2C(F)(F)F)c2ccccc21 (stereo not drawn)	33.2	> 95	45.4	
COc1cc(N2CCC(N3CCN(C)CC3)CC2)ccc1Nc1ncc(Cl)c(Nc2ccccc2P(C)(C)=O)n1 [BRIGATINIB]			562	IC50 [8]: 404 nM; IC50 (A549): 911 nM; IC50 (NCI-H1975): 444 nM; IC50 (PC-9): 110 nM
CCS(=O)(=O)N1C=C(c2nc(Nc3ccc(N4CCN(CCCCC(=O)Nc5cccc6c5CN(C5CCC(=O)NC5=O)C6=O)CC4)cc3)ncc2C(F)(F)F)C2CC=CC=C21 (stereo not drawn)		> 95	93.5	
CCS(=O)(=O)n1cc(-c2nc(Nc3ccc(N4CCN(C(=O)CCC(=O)Nc5cccc6c5CN(C5CCC(=O)NC5=O)C6=O)CC4)cc3)ncc2C(F)(F)F)c2ccccc21 (stereo not drawn)	180	88.4	419	
CCS(=O)(=O)n1cc(-c2nc(Nc3ccc(N4CCN(C(=O)CCCCC(=O)Nc5cccc6c5CN(C5CCC(=O)NC5=O)C6=O)CC4)cc3)ncc2C(F)(F)F)c2ccccc21 (stereo not drawn)	> 300	48.3	188	
CCS(=O)(=O)n1cc(-c2nc(Nc3ccc(N4CCN(CCOCCOCC(=O)Nc5cccc6c5CN(C5CCC(=O)NC5=O)C6=O)CC4)cc3)ncc2C(F)(F)F)c2ccccc21 (stereo not drawn)	25.3	> 95	34.7	
CCS(=O)(=O)n1cc(-c2nc(Nc3ccc(N4CCN(CCCC(=O)Nc5cccc6c5CN(C5CCC(=O)NC5=O)C6=O)CC4)cc3)ncc2C(F)(F)F)c2ccccc21 (stereo not drawn)	49.7	> 95	62.7	
CCS(=O)(=O)n1cc(-c2nc(Nc3ccc(N4CCNCC4)cc3)ncc2C(F)(F)F)c2ccccc21				Kd [9]: 47.9 nM; Activity [7]: 106%
CCS(=O)(=O)n1cc(-c2nc(Nc3ccc(N4CCN(CCC(=O)Nc5cccc6c5CN(C5CCC(=O)NC5=O)C6=O)CC4)cc3)ncc2C(F)(F)F)c2ccccc21 (stereo not drawn)	26.1	94.7	59.9	
CCS(=O)(=O)n1cc(-c2nc(Nc3ccc4c(ccn4CCN(C)C)c3)ncc2C(F)(F)F)c2ccccc21			16.3	
CCS(=O)(=O)n1cc(-c2nc(Nc3ccc(N4CCN(CCCCCCCCCC(=O)Nc5cccc6c5CN(C5CCC(=O)NC5=O)C6=O)CC4)cc3)ncc2C(F)(F)F)c2ccccc21 (stereo not drawn)	68.7	80.6	48.6	
